Assay type in all cases: in vivo
For assay [1], the system named is Russian thistle (Salsola iberica). Put plainly: Test D pre-/postemergence: Russian thistle. The procedure, abridged:
(§1)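 Visual control ratings (0–100) after 14–21 days, controlled environment. Preemergence on silt loam; postemergence on 2–18 cm plants.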

Assay [2] concerns deadnettle (henbit deadnettle, Lamium amplexicaule). The assay is described as follows: Test D pre-/postemergence: deadnettle. The procedure, abridged:
as §1

The test system of assay [3] is blackgrass (Alopecurus myosuroides). The assay is described as follows: Test D pre-/postemergence: blackgrass. The method, boiled down:
as §1

Assay [4] concerns bermudagrass (Cynodon dactylon). Put plainly: Test C pre-/postemergence: bermudagrass. The source says:
Seeds of plant species selected from blackgrass (Alopecurus myosuroides), bromegrass, downy (downy bromegrass, Bromus tectorum), foxtail, green (green foxtail, Setaria viridis), ryegrass, Italian (Italian ryegrass, Lolium multiflorum), winter wheat (Triticum aestivum), wild oat (Avena fatua), galium (catchweed bedstraw, Galium aparine), bermudagrass (Cynodon dactylon), surinam grass (Brachiaria decumbens), cocklebur (common cocklebur, Xanthium strumarium), corn (Zea mays), large crabgrass (Digitaria sanguinalis), woolly cupgrass (Eriochloa villosa), foxtail, giant (giant foxtail, Setaria faberii), goosegrass (Eleusine indica), johnsongrass (Sorghum halepense), kochia (Kochia scoparia), lambsquarters (Chenopodium album), morningglory (Ipomoea coccinea), nightshade (eastern black nightshade, Solanum ptycanthum), nutsedge, yellow (yellow nutsedge, Cyperus esculentus), pigweed (Amaranthus retroflexus), ragweed (common ragweed, Ambrosia elation), soybean (Glycine max), common (oilseed) sunflower (Helianthus annuus), Russian thistle (Salsola kali) and velvetleaf (Abutilon theophrasti) were planted into a blend of loam soil and sand and treated preemergence with test chemicals formulated in a non-phytotoxic solvent mixture which included a surfactant.
At the same time, plants selected from these crop and weed species and also barley (winter barley, Hordeum vulgare), canarygrass (Phalaris minor), chickweed (common chickweed, Stellaria media) windgrass (Apera spica-venti) and deadnettle (henbit deadnettle, Lamium amplexicaule) were planted in pots containing Redi-Earth® planting medium (Scotts Company, 14111 Scottslawn Road, Marysville, Ohio 43041) comprising spaghnum peat moss, vermiculite, wetting agent and starter nutrients and treated with postemergence applications of test chemicals formulated in the same manner. Plants ranged in height from 2 to 18 cm (1- to 4-leaf stage) for postemergence treatments.
Treated plants and controls were maintained in a greenhouse for 13 to 15 days, after which time all species were compared to controls and visually evaluated. Plant response ratings, summarized in Table C, are based on a scale of 0 to 100 where 0 is no effect and 100 is complete control. A dash (-) response means no test result.

Assay [5] relates to chickweed (common chickweed, Stellaria media). Put plainly: Test D pre-/postemergence: chickweed. The method, boiled down:
as §1

Assay [6] has as its system bluegrass (annual bluegrass, Poa annua). The assay is described as follows: Test D pre-/postemergence: bluegrass. The procedure, abridged:
as §1

The test system of assay [7] is ryegrass, Italian (Italian ryegrass, Lolium multiflorum). Put plainly: Test D pre-/postemergence: ryegrass, Italian. The procedure, abridged:
as §1

A further assay has as its system rice (Oryza sativa). The assay is described as follows: Test B flooded paddy: rice. Particulars: Flood, applied to paddy water at 2-leaf stage, visually evaluated after 13 to 15 days. The method, boiled down:
(§2)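 Paddy-water application: seedlings at 2-leaf stage, flood depth 3 cm maintained for the test duration. Evaluation after 13–15 days in the greenhouse by eye relative to controls; 0–100 scale.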

Assay [8] concerns barnyardgrass (Echinochloa crus-galli). The assay is described as follows: Test B flooded paddy: barnyardgrass. Particulars: Flood, applied to paddy water at 2-leaf stage, visually evaluated after 13 to 15 days. The method, boiled down:
as §2

[9] abbreviates: Postemergence, 31 g ai/ha, scale 0 to 100 (0 no effect, 100 complete control).
Where [10] appears, read: Postemergence, 62 g ai/ha, scale 0 to 100 (0 no effect, 100 complete control).
The mark [11] stands for this setting: Postemergence, 125 g ai/ha, scale 0 to 100, 0 no effect, 100 complete control.
The mark [12] stands for this setting: Postemergence, 250 g ai/ha, scale 0 to 100 (0 no effect, 100 complete control).
[13] abbreviates: Postemergence, 16 g ai/ha, scale 0 to 100.
[14] abbreviates: Preemergence, 16 g ai/ha, scale 0 to 100 (0 no effect, 100 complete control).
Setting [15] is: Preemergence, 31 g ai/ha, scale 0 to 100 (0 no effect, 100 complete control).
Setting [16] is: Preemergence, 62 g ai/ha, scale 0 to 100.
Where [17] appears, read: Preemergence, 125 g ai/ha, scale 0 to 100.
Where [18] appears, read: Preemergence, 250 g ai/ha, scale 0 to 100.
[19] abbreviates: Postemergence, 250 g ai/ha, scale 0 to 100.
The mark [20] stands for this setting: Preemergence, 31 g ai/ha, scale of 0 to 100, 0 is no effect, 100 is complete control.
Where [21] appears, read: Preemergence, 125 g ai/ha, scale 0 to 100, 0 no effect, 100 complete control.
[22] abbreviates: Preemergence, 250 g ai/ha, scale 0 to 100, 0 no effect, 100 complete control.

Molecules are shown by their SMILES.

Take `Cc1nn(-c2ccc(F)cc2)nc1Oc1ccnc(C(F)(F)F)c1` [Compound 129, 4-[[2-(4-fluorophenyl)-5-methyl-2H-1,2,3-triazol-4-yl]oxy]-2-(trifluoromethyl)pyridine]: the “Plant response rating: Russian Thistle” value turned out to be 98 in [1] (setting [9]), 100 in [1] (setting [10]), 100 in [1] (setting [11]) and 100 in assay [1] (setting [12]). For the same compound, the “Plant response rating, Russian Thistle” value in assay [1] (setting [13]) amounted to 98; in assay [1] (setting [14]) it was 80; in [1] (setting [15]), 100; in [1] (setting [16]), 100; in assay [1] (setting [17]), 100; in [1] (setting [18]), 100. The “Plant response rating: Deadnettle” value in assay [2] (setting [9]) is 75; in assay [2] (setting [10]), 80; in [2] (setting [11]) it was 98; in [2] (setting [12]), 100. Also, the “Plant response rating, Deadnettle” value in [2] (setting [13]) came out at 60; in assay [2] (setting [14]) it was 0; in assay [2] (setting [15]), 10; in assay [2] (setting [16]) it was 100; in [2] (setting [17]) it was 100; in assay [2] (setting [18]), 100. Moreover, the “Plant response rating: Blackgrass” value in [3] (setting [9]) is given as 10; in [3] (setting [10]) it was 10; in assay [3] (setting [11]), 50; in assay [3] (setting [12]) it was 70. The “Plant response rating, Blackgrass” value in [3] (setting [13]) amounted to 5; in assay [3] (setting [14]), 0; in [3] (setting [15]) it was 0; in assay [3] (setting [16]), 30; in [3] (setting [17]), 100; in assay [3] (setting [18]), 100. Besides, the “Plant response rating, Bermudagrass” value is 40 in assay [4] (setting [9]); 45 in assay [4] (setting [10]); 60 in assay [4] (setting [11]); 70 in [4] (setting [19]); 98 in assay [4] (setting [20]); 98 in assay [4] (Preemergence, 62 g ai/ha, scale 0 to 100, 0 no effect, 100 complete control). The “Plant response rating, Bermudagrass” value in assay [4] (setting [21]) and in [4] (setting [22]) was 98 each time. Also, the “Plant response rating: Chickweed” value came out at 90 in [5] (setting [9]), 100 in [5] (setting [10]), 100 in assay [5] (setting [11]) and 100 in assay [5] (setting [12]). For the same compound, the “Plant response rating, Chickweed” value in assay [5] (setting [13]) was found to be 75; in assay [5] (setting [14]), 0; in assay [5] (setting [15]), 100; in assay [5] (setting [16]) it was 100; in [5] (setting [17]) it was 100; in assay [5] (setting [18]), 100. Also, the “Plant response rating: Bluegrass” value was determined as 10 in assay [6] (setting [9]), 20 in assay [6] (setting [10]), 60 in assay [6] (setting [11]) and 70 in [6] (setting [12]). The “Plant response rating, Bluegrass” value is 10 in assay [6] (setting [13]); 0 in assay [6] (setting [14]); 0 in assay [6] (setting [15]); 85 in [6] (setting [16]); 100 in [6] (setting [17]); 100 in assay [6] (setting [18]). Besides, the “Plant response rating: Ryegrass, Italian” value in assay [7] (setting [9]) came to 5; in assay [7] (setting [10]) it was 5; in [7] (setting [11]) it was 10; in assay [7] (setting [12]), 15. In addition, the “Plant response rating, Ryegrass, Italian” value in assay [7] (setting [13]) was 5; in [7] (setting [14]), 0; in assay [7] (setting [15]), 5; in [7] (setting [16]), 10; in assay [7] (setting [17]), 70; in assay [7] (setting [18]), 90.
Turning to `Fc1ccc(-n2nc(Cc3ccnc(C(F)(F)F)c3)c(OCC(F)(F)F)n2)cc1` [Compound 142], the “Plant response rating, Rice (0 to 100 scale, 0 is no effect, 100 is complete control)” value in the assay with rice (Oryza sativa) (250 g ai/ha) was found to be 60. Moreover, the “Plant response rating, Bermudagrass” value in assay [4] (setting [9]) was 15; in assay [4] (setting [10]) it was 70; in assay [4] (setting [11]), 75; in assay [4] (setting [19]), 85; in assay [4] (setting [20]), 98; in assay [4] (Preemergence, 62 g ai/ha, scale of 0 to 100, 0 is no effect, 100 is complete control) it was 98. The “Plant response rating, Bermudagrass” value in assay [4] (setting [21]) and in [4] (setting [22]) was 98 throughout. Moreover, the “Plant response rating, Barnyardgrass (0 to 100 scale, 0 is no effect, 100 is complete control)” value in assay [8] (250 g ai/ha) was determined as 70.
Regarding `CCCc1nn(-c2ccc(F)cc2)nc1Cc1ccnc(C(F)(F)F)c1` [Compound 153], the “Plant response rating, Rice (0 to 100 scale, 0 is no effect, 100 is complete control)” value with rice (Oryza sativa) (250 g ai/ha) is 60. The “Plant response rating, Barnyardgrass (0 to 100 scale, 0 is no effect, 100 is complete control)” value in assay [8] (250 g ai/ha) was 80.
Turning to `Cc1nn(-c2ccc(C(F)(F)F)c(F)c2)nc1Cc1ccnc(C(F)(F)F)c1` [Compound 162], the “Plant response rating, Rice (0 to 100 scale, 0 is no effect, 100 is complete control)” value with rice (Oryza sativa) (125 g ai/ha) was 25. For the same compound, the “Plant response rating, Barnyardgrass (0 to 100 scale, 0 is no effect, 100 is complete control)” value in assay [8] (125 g ai/ha) is 70.
With `CCc1nn(-c2ccc(F)cc2)nc1Oc1ccnc(C(F)(F)F)c1` [Compound 166], the “Plant response rating, Rice (0 to 100 scale, 0 is no effect, 100 is complete control)” value in the assay with rice (Oryza sativa) (125 g ai/ha) is recorded as 80. For the same compound, the “Plant response rating, Barnyardgrass (0 to 100 scale, 0 is no effect, 100 is complete control)” value in [8] (125 g ai/ha) is reported as 70.
Take `CCCc1nn(-c2ccc(C(F)(F)F)c(F)c2)nc1Oc1ccnc(C(F)(F)F)c1` [Compound 185]: the “Plant response rating, Rice (0 to 100 scale, 0 is no effect, 100 is complete control)” value with rice (Oryza sativa) (250 g ai/ha) worked out at 65. Moreover, in assay [8] (250 g ai/ha), the “Plant response rating, Barnyardgrass (0 to 100 scale, 0 is no effect, 100 is complete control)” value is on record as 90.
On to `CCOc1nn(-c2ccc(Br)cc2)nc1Cc1ccnc(C(F)(F)F)c1` [Compound 189], for which the “Plant response rating, Rice (0 to 100 scale, 0 is no effect, 100 is complete control)” value in the assay on rice (Oryza sativa) (125 g ai/ha) came out at 35. In assay [8] (125 g ai/ha), the “Plant response rating, Barnyardgrass (0 to 100 scale, 0 is no effect, 100 is complete control)” value amounted to 0.
